Calls of active or inactive are those of the source. The rule behind the calls is not given here.
Assays:
HT-22 [1] = assay: Neuroprotective activity against glutamate-induced mouse HT22 cells assessed as increase in cell survival at 25 uM cotreated with glutamate measured after 24 hrs by MTT assay; format: functional, cell-based
HT-22 [2] = assay: Neuroprotective activity against glutamate-induced mouse HT22 cells assessed as increase in cell survival at 10 uM cotreated with glutamate measured after 24 hrs by MTT assay; format: functional, cell-based
[3] = Antioxidant activity assessed as reduction of Fe3+-TPTZ to Fe2+-TPTZ measured every 15 secs for 4 mins by FRAP assay; format: functional
PC-12 = assay: Induction of rat PC12 cells differentiation assessed as neurite outgrowth at 10 uM after 24 hrs relative to control; format: functional
BV-2 = assay: Antiinflammatory activity in mouse BV2 cells assessed as inhibition of LPS-induced microglial activation after 24 hrs by Griess reagent based assay; format: functional, cell-based; details: BV-2, 24 h
HT-22 [4] = assay: Neurotoxicity against mouse HT22 cells assessed as decrease in cell viability at 25 uM using 1:1 test compound to silibinin ratio measured after 24 hrs by MTT assay; format: toxicity, cell-based; details: ht-22, 24 h
[5] = Antioxidant activity assessed as reduction of Fe3+-TPTZ to Fe2+-TPTZ using equimolar mixture of test compound and silibinin measured every 15 secs for 4 mins by FRAP assay; format: functional
HT-22 [6] = assay: Neuroprotective activity against IAA-induced ischemia in mouse HT22 cells assessed as increase in cell viability cotreated with IAA for 2 hrs followed by IAA wash out measured after 24 hrs by MTT assay; format: functional, cell-based
HT-22 [7] = assay: Neuroprotective activity against glutamate-induced mouse HT22 cells assessed as increase in cell survival at 25 to 50 uM cotreated with glutamate measured after 24 hrs by MTT assay; format: functional, cell-based
HT-22 [8] = assay: Neurotoxicity against mouse HT22 cells assessed as decrease in cell viability at 25 uM measured after 24 hrs by MTT assay; format: toxicity, cell-based; details: ht-22, 24 h
HT-22 [9] = assay: Neuroprotective activity against glutamate-induced mouse HT22 cells assessed as increase in cell survival at 1 to 25 uM cotreated with glutamate measured after 24 hrs by MTT assay; format: functional, cell-based
HT-22 [10] = assay: Neuroprotective activity against glutamate-induced mouse HT22 cells assessed as increase in cell survival at 1 to 25 uM using 1:1 test compound to silibinin ratio cotreated with glutamate measured after 24 hrs by MTT assay; format: functional, cell-based
[11] = Antioxidant activity assessed as reduction of Fe3+-TPTZ to Fe2+-TPTZ using 1:1 test compound to silibinin ratio measured every 15 secs for 4 mins by FRAP assay; format: functional
[12] = Antioxidant activity assessed as ferric ion reduction by measuring FeSO4 equivalents reducing Fe3+-TPTZ to Fe2+-TPTZ measured every 15 secs for 4 mins by FRAP assay; format: functional
[13] = biological target: T1, Microtubule-associated protein tau (Homo sapiens, UniProt P10636); assay: Inhibition of tau (unknown origin) aggregation expressed in Escherichia coli (DE3) at 10 uM incubated for overnight by Th-S fluorescence staining based UV-Vis spectrophotometer (reference value: 0.0 +/- 1.4%)
T1 sequence (P10636 whole entry): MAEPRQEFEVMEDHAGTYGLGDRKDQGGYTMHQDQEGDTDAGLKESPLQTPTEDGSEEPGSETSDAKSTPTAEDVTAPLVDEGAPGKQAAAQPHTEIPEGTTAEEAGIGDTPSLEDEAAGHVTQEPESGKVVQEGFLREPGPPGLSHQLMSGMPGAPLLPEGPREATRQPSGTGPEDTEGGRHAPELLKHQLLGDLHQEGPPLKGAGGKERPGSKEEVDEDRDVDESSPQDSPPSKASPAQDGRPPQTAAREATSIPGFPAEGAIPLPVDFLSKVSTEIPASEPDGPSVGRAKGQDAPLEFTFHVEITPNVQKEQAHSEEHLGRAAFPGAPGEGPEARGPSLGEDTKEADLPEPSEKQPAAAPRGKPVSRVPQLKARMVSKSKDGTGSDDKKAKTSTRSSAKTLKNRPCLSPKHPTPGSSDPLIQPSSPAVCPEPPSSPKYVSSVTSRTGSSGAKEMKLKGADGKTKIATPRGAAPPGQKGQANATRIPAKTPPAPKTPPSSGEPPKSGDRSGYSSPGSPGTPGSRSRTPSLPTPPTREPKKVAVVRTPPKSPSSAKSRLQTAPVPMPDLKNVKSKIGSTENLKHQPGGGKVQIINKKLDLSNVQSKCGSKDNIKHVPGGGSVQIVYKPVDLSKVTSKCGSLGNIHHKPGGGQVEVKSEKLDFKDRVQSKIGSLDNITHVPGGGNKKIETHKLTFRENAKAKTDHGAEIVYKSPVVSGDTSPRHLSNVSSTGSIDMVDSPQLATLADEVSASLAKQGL

[14] = biological target: T2, Amyloid-beta precursor protein (Homo sapiens, UniProt P05067); assay: Inhibition of amyloid beta 42 (unknown origin) expressed in Escherichia coli BL21 (DE3) aggregation at 100 uM incubated for overnight by Th-S fluorescence staining based UV-Vis spectrophotometer (reference value: 0 +/- 4.4%)
T2 sequence (P05067 whole entry): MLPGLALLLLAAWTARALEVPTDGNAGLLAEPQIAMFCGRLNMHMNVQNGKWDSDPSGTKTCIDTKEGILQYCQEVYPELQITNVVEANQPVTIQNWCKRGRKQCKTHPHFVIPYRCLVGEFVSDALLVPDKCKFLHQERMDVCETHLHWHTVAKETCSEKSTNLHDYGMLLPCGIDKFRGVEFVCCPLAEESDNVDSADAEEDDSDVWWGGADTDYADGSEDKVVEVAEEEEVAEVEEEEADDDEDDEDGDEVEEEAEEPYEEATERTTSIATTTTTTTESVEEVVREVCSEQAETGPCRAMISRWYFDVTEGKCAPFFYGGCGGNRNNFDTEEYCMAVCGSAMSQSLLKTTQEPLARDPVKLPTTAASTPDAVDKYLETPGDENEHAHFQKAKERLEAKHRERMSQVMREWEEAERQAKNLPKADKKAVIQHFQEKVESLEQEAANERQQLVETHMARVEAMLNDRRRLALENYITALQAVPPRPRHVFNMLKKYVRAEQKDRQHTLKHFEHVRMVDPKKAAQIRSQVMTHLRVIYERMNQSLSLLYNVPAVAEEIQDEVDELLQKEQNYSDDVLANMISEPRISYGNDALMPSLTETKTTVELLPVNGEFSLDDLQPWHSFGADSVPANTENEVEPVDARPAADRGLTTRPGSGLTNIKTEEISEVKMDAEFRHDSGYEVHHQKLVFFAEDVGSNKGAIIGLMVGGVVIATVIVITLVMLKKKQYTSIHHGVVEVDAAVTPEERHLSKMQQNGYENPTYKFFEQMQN

[15] = biological target: T2, Amyloid-beta precursor protein; assay: Inhibition of amyloid beta 42 (unknown origin) expressed in Escherichia coli BL21 (DE3) aggregation incubated for overnight by Th-S fluorescence staining based UV-Vis spectrophotometer
[16] = biological target: T1, Microtubule-associated protein tau; assay: Inhibition of tau (unknown origin) aggregation expressed in Escherichia coli (DE3) at 100 uM incubated for overnight by Th-S fluorescence staining based UV-Vis spectrophotometer (reference value: 0.0 +/- 2.4%)
[17] = biological target: T2, Amyloid-beta precursor protein; assay: Inhibition of amyloid beta 42 (unknown origin) expressed in Escherichia coli BL21 (DE3) aggregation at 10 uM incubated for overnight by Th-S fluorescence staining based UV-Vis spectrophotometer (reference value: 0 +/- 1%)
HT-22 [18] = assay: Neurotoxicity against mouse HT22 cells assessed as decrease in cell viability at 10 uM measured after 24 hrs by MTT assay; format: toxicity, cell-based; details: ht-22, 24 h
[19] = biological target: T1, Microtubule-associated protein tau; assay: Inhibition of tau (unknown origin) aggregation expressed in Escherichia coli (DE3) incubated for overnight by Th-S fluorescence staining based UV-Vis spectrophotometer
HT-22 [20] = assay: Neuroprotective activity against glutamate-induced mouse HT22 cells assessed as increase in cell survival at 5 to 25 uM cotreated with glutamate measured after 24 hrs by MTT assay; format: functional, cell-based
HT-22 [21] = assay: Neuroprotective activity against glutamate-induced mouse HT22 cells assessed as cell survival at 25 uM cotreated with glutamate measured after 24 hrs by MTT assay relative to control; format: functional
[22] = Metabolic stability of the compound in human pooled plasma at 50 uM by LCMS analysis; format: ADME, cell-free; details: TDE = time-dependent effect
[23] = Stability of the compound in assay medium at 50 uM after 24 hrs by LCMS analysis; format: physicochemical; details: read-out: Stability
[24] = Drug metabolism in human pooled plasma assessed as 7-Oferuloyl-2,3-dehydrosilibinin formation at 50 uM up to 24 hrs by LCMS analysis; format: ADME, cell-free
[25] = Stability of the compound in assay medium at 50 uM by LCMS analysis; format: physicochemical; details: TDE = time-dependent effect
[26] = Drug metabolism in human pooled plasma assessed as cleavage of ester bond at 50 uM up to 24 hrs by LCMS analysis; format: ADME, cell-free
HT-22 [27] = assay: Neuroprotective activity against glutamate-induced mouse HT22 cells assessed as cell survival at 10 to 25 uM cotreated with glutamate measured after 24 hrs by MTT assay relative to control; format: functional
[28] = Half life in human pooled plasma at 50 uM up to 24 hrs by LCMS analysis; format: ADME, cell-free
[29] = Metabolic stability of the compound in human pooled plasma assessed as compound remaining at 50 uM after 4 hrs by LCMS analysis; format: ADME, cell-free; details: read-out: Stability

Structure (SMILES)	Activity (HT-22 [1])	Activity [3]	Activity (PC-12)	EC50 (BV-2)	EC50 (HT-22 [6])	Activity (HT-22 [7])	other results
COc1cc(C2Oc3cc([C@H]4Oc5cc(OC(=O)c6ccc7c(c6)OC(C)(C)O7)cc(O)c5C(=O)[C@@H]4O)ccc3OC2CO)ccc1O (stereo partly specified)	inactive	inactive	–	–	–	–	Activity (HT-22 [2]): Active
O=C(O)/C=C/c1ccccc1 [CINNAMIC ACID]	–	inactive	inactive	> 10 µM	> 10000 nM	–	Activity (HT-22 [4]): Toxic; Activity [5]: Active
COc1cc(C2Oc3cc([C@H]4Oc5cc(OC(=O)CCc6ccccc6)cc(O)c5C(=O)[C@@H]4O)ccc3OC2CO)ccc1O (stereo partly specified)	–	inactive	–	–	–	inactive	–
COc1cc(/C=C/C(=O)O)ccc1O [FERULATE]	–	Active	inactive	> 10 µM	> 10000 nM	–	Activity (HT-22 [8]): Non-Toxic; Activity (HT-22 [9]): inactive; Activity (HT-22 [10]): inactive; Activity (HT-22 [4]): Toxic; Activity [11]: Active
O=C1O[C@H]([C@@H](O)CO)C(O)=C1O	–	–	–	–	–	–	Activity [12]: 2 equiv
COc1cc(C2Oc3cc([C@H]4Oc5cc(OC(=O)c6ccccc6)cc(O)c5C(=O)[C@@H]4O)ccc3OC2CO)ccc1O (stereo partly specified)	inactive	inactive	–	–	–	–	–
COc1cc(C(=O)Oc2cc(O)c3c(c2)O[C@H](c2ccc4c(c2)OC(c2ccc(O)c(OC)c2)C(CO)O4)[C@@H](O)C3=O)ccc1O (stereo partly specified)	Active	Active	–	–	–	–	–
COc1cc(C2Oc3cc([C@H]4Oc5cc(OC(=O)CCc6cc(OC)c(O)c(OC)c6)cc(O)c5C(=O)[C@@H]4O)ccc3OC2CO)ccc1O (stereo partly specified)	–	Active	–	–	–	inactive	–
COc1cc(/C=C/C(=O)Oc2cc(O)c3c(c2)O[C@H](c2ccc4c(c2)O[C@@H](c2ccc(O)c(OC)c2)[C@H](CO)O4)[C@@H](O)C3=O)ccc1O	–	Active	67%	10.1 µM	2200 nM	–	inhibition [13]: 44.5%; inhibition [14]: 73%; IC50 [15]: 43.6 µM; inhibition [16]: 84%; Activity (HT-22 [2]): Active; inhibition [17]: 14.2%; Activity (HT-22 [18]): Toxic; IC50 [19]: 12.9 µM
COc1cc(C2Oc3cc([C@H]4Oc5cc(O)cc(O)c5C(=O)[C@@H]4O)ccc3OC2COC(=O)/C=C/c2ccccc2)ccc1O (stereo partly specified)	Active	–	–	–	–	–	Activity (HT-22 [2]): inactive
COc1cc(C2Oc3cc([C@H]4Oc5cc(OC(=O)/C=C/c6ccc7c(c6)OC(C)(C)O7)cc(O)c5C(=O)[C@@H]4O)ccc3OC2CO)ccc1O (stereo partly specified)	inactive	inactive	–	–	–	Active	Activity (HT-22 [2]): Active
Cc1c(C)c2c(c(C)c1O)CCC(C)(C(=O)O)O2 (stereo unspecified)	–	–	–	–	–	–	Activity [12]: 1.8 equiv
COc1cc(C2Oc3cc([C@H]4Oc5cc(OC(=O)CCc6ccc7c(c6)OC(C)(C)O7)cc(O)c5C(=O)[C@@H]4O)ccc3OC2CO)ccc1O (stereo partly specified)	–	inactive	–	–	–	inactive	–
COc1cc(C2Oc3cc([C@H]4Oc5cc(OC(=O)/C=C/c6ccccc6)cc(O)c5C(=O)[C@@H]4O)ccc3OC2CO)ccc1O (stereo partly specified)	inactive	inactive	40%	4.2 µM	1500 nM	Active	inhibition [13]: 37.1%; Activity (HT-22 [20]): Active; Activity (HT-22 [8]): Non-Toxic; inhibition [14]: 61.1%; inhibition [16]: 76.1%; Activity (HT-22 [2]): Active; inhibition [17]: 17.1%
COc1cc(C2Oc3cc([C@H]4Oc5cc(OC(=O)/C=C/c6cc(OC)c(O)c(OC)c6)cc(O)c5C(=O)[C@@H]4O)ccc3OC2CO)ccc1O (stereo partly specified)	–	Active	–	–	–	Active	–
COc1cc(C2Oc3cc([C@H]4Oc5cc(OC(=O)c6cc(OC)c(O)c(OC)c6)cc(O)c5C(=O)[C@@H]4O)ccc3OC2CO)ccc1O (stereo partly specified)	Active	Active	–	–	–	–	–
O=c1c(O)c(-c2ccc(O)c(O)c2)oc2cc(O)cc(O)c12 [QUERCETIN]	–	–	–	–	–	–	Survival (HT-22 [21]): 80%
COc1cc(/C=C/C(=O)Oc2cc(O)c3c(c2)O[C@H](c2ccc4c(c2)OC(c2ccc(O)c(OC)c2)C(CO)O4)[C@@H](O)C3=O)ccc1O (stereo partly specified)	–	Active	47%	6.5 µM	> 10000 nM	–	inhibition [13]: 30.4%; Activity (HT-22 [8]): Toxic; inhibition [14]: 54.4%; Stability [22]: Tde; remaining at 24 h, 50 µM [23]: 25%; Drug metabolism [24]: Metabolite_Notdetected; inhibition [16]: 64.7%; Stability [25]: Tde; Drug metabolism [26]: Metabolite_Detected; Survival (HT-22 [27]): 50%; inhibition [17]: 16.8%; half-life at 50 µM [28]: 90 min; remaining at 4 h, 50 µM [29]: 20%
COc1cc(CCC(=O)Oc2cc(O)c3c(c2)O[C@H](c2ccc4c(c2)OC(c2ccc(O)c(OC)c2)C(CO)O4)[C@@H](O)C3=O)ccc1O (stereo partly specified)	–	Active	–	–	–	inactive	–
COc1cc(/C=C/C(=O)Oc2cc(O)c3c(c2)O[C@H](c2ccc4c(c2)O[C@H](c2ccc(O)c(OC)c2)[C@@H](CO)O4)[C@@H](O)C3=O)ccc1O	–	Active	50%	9.8 µM	1400 nM	–	inhibition [13]: 36.8%; inhibition [14]: 52.7%; IC50 [15]: 85.5 µM; inhibition [16]: 67.2%; inhibition [17]: 13.2%; Activity (HT-22 [18]): Toxic; IC50 [19]: 27.2 µM

Source: ChEMBL document CHEMBL4196016, “Regioselective synthesis of 7-O-esters of the flavonolignan silibinin and SARs lead to compounds with overadditive neuroprotective effects” (Eur J Med Chem, 2018)
